For assay [1], the system named is Serine/threonine-protein kinase Nek4 (Homo sapiens), P51957 [P225A]. The experiment in a line: Inhibition of recombinant full-length human NEK4 P225A mutant assessed as residual activity at 1 uM using myelin basic protein as substrate measured after 40 mins in presence of [gamma33P]ATP by scintillation counting method relative to control.
For assay [2], the target named is Calcium/calmodulin-dependent protein kinase type II subunit alpha (Homo sapiens) (UniProt Q9UQM7). The experiment in a line: Inhibition of recombinant full length human CaMK2alpha assessed as residual activity at 1 uM using KKLNRTLSFAEPG as substrate incubated for 40 mins in presence of [gamma-33ATP] by scintillation counting based radiometry assay relative to control.

Assay [3] relates to Dual specificity protein kinase TTK (Homo sapiens), P33981 [S389A]. The assay is described as follows: Inhibition of recombinant full-length human TTK S389A mutant at 1 uM assessed as residual activity at 1 uM using MBP as substrate measured after 40 mins in presence of [gamma33P]ATP by scintillation counting method relative to control.
Assay [4] has as its target Serine/threonine-protein kinase PRP4 homolog (Homo sapiens) (UniProt Q13523). The experiment in a line: Inhibition of recombinant human PRP4 (663 to end residues) assessed as residual activity at 1 uM using casein as substrate measured after 40 mins in presence of [gamma33P]ATP by scintillation counting method relative to control.
Assay [5] has as its target Serine/threonine-protein kinase TBK1 (Homo sapiens) (UniProt Q9UHD2). The experiment in a line: Inhibition of recombinant full-length human TBK1 at 1 uM assessed as residual activity at 1 uM using KRRRALS(p)VASLPGL as substrate measured after 40 mins in presence of [gamma33P]ATP by scintillation counting method relative to control.
In assay [6] the target is Ephrin type-A receptor 4 (Homo sapiens) (UniProt P54764). The experiment in a line: Inhibition of recombinant human EphA4 (601 to 892 residues) assessed as residual activity at 1 uM using poly(Glu, Tyr) 4:1 as substrate at 40 mins in presence of [gamma-33ATP] by scintillation counting based radiometry assay relative to control.
Assay [7] deals with Cyclin-dependent kinase 5/CDK5 activator 1 (Homo sapiens) (UniProt Q00535+Q15078). The assay is described as follows: Inhibition of recombinant full length human CDK5/p35 assessed as residual activity at 1 uM using histone H1 as substrate incubated for 40 mins in presence of [gamma-33ATP] by scintillation counting based radiometry assay relative to control. Format: protein-complex assay.

For assay [8], the target named is Serine/threonine-protein kinase SIK2 (Homo sapiens) (UniProt Q9H0K1). The assay is described as follows: Inhibition of recombinant human SIK2 (1 to 276 residues) assessed as residual activity at 1 uM using KKKVSRSGLYRSPSMPENLNRPR as substrate measured after 40 mins in presence of [gamma33P]ATP by scintillation counting method relative to control.
Assay [9] deals with Serine/threonine-protein kinase Nek6 (Homo sapiens) (UniProt Q9HC98). The assay is described as follows: Inhibition of recombinant human NEK6 (2 to end residues) assessed as residual activity at 1 uM using FLAKSFGSPNRAYKK as substrate measured after 40 mins in presence of [gamma33P]ATP by scintillation counting method relative to control.
In assay [10] the target is Receptor tyrosine-protein kinase erbB-4 (Homo sapiens) (UniProt Q15303). The assay is described as follows: Inhibition of recombinant human ERBB4 (706 to 991 residues) assessed as residual activity at 1 uM using poly(Glu, Tyr) 4:1 as substrate at 40 mins in presence of [gamma-33ATP] by scintillation counting based radiometry assay relative to control.
For assay [11], the species on record is Homo sapiens. The experiment in a line: Inhibition of recombinant human EphB2 A848S/K918E mutant (560 to end residues) assessed as residual activity at 1 uM using poly(Glu, Tyr) 4:1 as substrate at 40 mins in presence of [gamma-33ATP] by scintillation counting based radiometry assay relative to control.
Assay [12] deals with MAP kinase-interacting serine/threonine-protein kinase 2 (Homo sapiens) (UniProt Q9HBH9). The assay is described as follows: Inhibition of recombinant full-length human Mnk2 assessed as residual activity at 1 uM using myelin basic protein as substrate measured after 40 mins in presence of [gamma33P]ATP by scintillation counting method.
Assay [13] has as its target Ephrin type-A receptor 1 (Homo sapiens) (UniProt P21709). The assay is described as follows: Inhibition of recombinant human EphA1 (568 to end residues) assessed as residual activity at 1 uM using KKKSPGEYVNIEFG as substrate at 40 mins in presence of [gamma-33ATP] by scintillation counting based radiometry assay relative to control.
In assay [14] the target is Platelet-derived growth factor receptor alpha (Homo sapiens) (UniProt P16234). The assay is described as follows: Inhibition of human PDGFRalpha (550 to end residues) assessed as residual activity at 1 uM poly(Glu, Tyr) 4:1 as substrate measured after 40 mins in presence of [gamma33P]ATP by scintillation counting method relative to control.
Assay [15] concerns the target Receptor-type tyrosine-protein kinase FLT3 (Homo sapiens) (UniProt P36888). The experiment in a line: Inhibition of recombinant human FLT3 (564 to end residues) assessed as residual activity at 1 uM using EAIYAAPFAKKK as substrate at 40 mins in presence of [gamma-33ATP] by scintillation counting based radiometry assay relative to control.
In assay [16] the test system is Tyrosine-protein kinase ABL1 (Homo sapiens), P00519 [Y253F]. The experiment in a line: Inhibition of human ABL1 Y253F mutant (27 to end residues) assessed as residual activity at 1 uM using EAIYAAPFAKKK as substrate incubated for 40 mins in presence of [gamma-33ATP] by scintillation counting based radiometry assay relative to control.
Assay [17] concerns the target Mitogen-activated protein kinase 12 (Homo sapiens) (UniProt P53778). The experiment in a line: Inhibition of recombinant human full length SAPK3 assessed as residual activity at 1 uM using myelin basic protein as substrate measured after 40 mins in presence of [gamma33P]ATP by scintillation counting method relative to control.
Assay [18] addresses Ribosomal protein S6 kinase alpha-4 (Homo sapiens) (UniProt O75676). The experiment in a line: Inhibition of recombinant human MSK2 (2 to end residues) assessed as residual activity at 1 uM using GRPRTSSFAEGKK as substrate measured after 40 mins in presence of [gamma33P]ATP by scintillation counting method relative to control.
For assay [19], the target named is Tyrosine-protein kinase Fer (Homo sapiens) (UniProt P16591). The experiment in a line: Inhibition of recombinant human FER (541 to end residues) assessed as residual activity at 1 uM using KKKSPGEYVNIEFG as substrate at 40 mins in presence of [gamma-33ATP] by scintillation counting based radiometry assay relative to control.
Assay [20] addresses Serine/threonine-protein kinase Nek9 (Homo sapiens) (UniProt Q8TD19). The assay is described as follows: Inhibition of recombinant human NEK9 (1 to 324 residues) assessed as residual activity at 1 uM using myelin basic protein as substrate measured after 40 mins in presence of [gamma33P]ATP by scintillation counting method relative to control.
For assay [21], the target named is Activin receptor type-1-like (Homo sapiens) (UniProt P37023). The experiment in a line: Inhibition of recombinant human ALK1 (142 to end residues) assessed as residual activity at 1 uM using casein as substrate incubated for 40 mins in presence of [gamma-33ATP] by scintillation counting based radiometry assay relative to control.

Sequence of Dual specificity protein kinase TTK (Homo sapiens), P33981 [S389A] (P33981 whole entry S389A): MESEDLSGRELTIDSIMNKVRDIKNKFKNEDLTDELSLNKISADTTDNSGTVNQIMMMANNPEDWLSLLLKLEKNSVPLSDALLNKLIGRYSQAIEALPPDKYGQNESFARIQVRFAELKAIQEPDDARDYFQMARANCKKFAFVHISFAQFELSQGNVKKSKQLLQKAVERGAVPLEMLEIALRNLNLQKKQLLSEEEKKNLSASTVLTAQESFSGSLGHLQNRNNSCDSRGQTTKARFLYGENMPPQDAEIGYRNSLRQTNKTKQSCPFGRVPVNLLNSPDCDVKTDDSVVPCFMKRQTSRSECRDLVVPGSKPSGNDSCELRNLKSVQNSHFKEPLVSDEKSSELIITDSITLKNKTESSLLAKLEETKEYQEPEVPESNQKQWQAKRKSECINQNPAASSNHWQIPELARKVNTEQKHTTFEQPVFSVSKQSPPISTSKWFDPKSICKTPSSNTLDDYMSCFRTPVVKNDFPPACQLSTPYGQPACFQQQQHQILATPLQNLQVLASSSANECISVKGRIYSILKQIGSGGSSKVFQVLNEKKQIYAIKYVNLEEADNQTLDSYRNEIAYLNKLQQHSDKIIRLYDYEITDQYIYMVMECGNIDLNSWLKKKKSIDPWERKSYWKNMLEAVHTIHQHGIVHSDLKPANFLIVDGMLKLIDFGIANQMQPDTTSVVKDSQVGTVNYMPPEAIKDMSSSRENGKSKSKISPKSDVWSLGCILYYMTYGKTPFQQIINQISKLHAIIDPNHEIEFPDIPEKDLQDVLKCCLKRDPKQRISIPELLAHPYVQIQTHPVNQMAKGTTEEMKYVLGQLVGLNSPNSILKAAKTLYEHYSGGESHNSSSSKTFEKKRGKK
Sequence of Ephrin type-A receptor 1 (Homo sapiens) (P21709 whole entry): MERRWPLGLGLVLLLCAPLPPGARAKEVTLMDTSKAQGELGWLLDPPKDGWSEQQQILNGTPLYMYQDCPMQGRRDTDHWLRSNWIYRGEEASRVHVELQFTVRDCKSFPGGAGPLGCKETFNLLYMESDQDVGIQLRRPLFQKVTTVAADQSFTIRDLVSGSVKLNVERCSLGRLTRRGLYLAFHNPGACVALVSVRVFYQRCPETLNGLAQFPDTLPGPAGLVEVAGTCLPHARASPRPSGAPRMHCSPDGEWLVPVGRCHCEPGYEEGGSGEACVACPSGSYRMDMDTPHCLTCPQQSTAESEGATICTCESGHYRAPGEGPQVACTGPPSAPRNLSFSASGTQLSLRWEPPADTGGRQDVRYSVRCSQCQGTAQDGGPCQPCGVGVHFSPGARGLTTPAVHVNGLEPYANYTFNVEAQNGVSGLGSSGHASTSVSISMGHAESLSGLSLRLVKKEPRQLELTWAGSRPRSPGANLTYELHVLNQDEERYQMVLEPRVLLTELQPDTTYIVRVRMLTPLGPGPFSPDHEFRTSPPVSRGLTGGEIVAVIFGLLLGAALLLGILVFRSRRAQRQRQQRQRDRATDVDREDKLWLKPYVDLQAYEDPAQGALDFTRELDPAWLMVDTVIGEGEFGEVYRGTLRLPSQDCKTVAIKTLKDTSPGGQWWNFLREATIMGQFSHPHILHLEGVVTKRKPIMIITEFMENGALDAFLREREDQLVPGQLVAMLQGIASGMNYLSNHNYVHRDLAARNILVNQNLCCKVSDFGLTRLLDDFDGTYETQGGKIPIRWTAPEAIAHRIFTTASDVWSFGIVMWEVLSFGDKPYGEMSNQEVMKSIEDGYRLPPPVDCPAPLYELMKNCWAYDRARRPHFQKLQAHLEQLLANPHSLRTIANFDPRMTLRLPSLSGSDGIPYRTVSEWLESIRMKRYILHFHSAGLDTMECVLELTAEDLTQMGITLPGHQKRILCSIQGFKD
Sequence of Receptor tyrosine-protein kinase erbB-4 (Homo sapiens) (Q15303 whole entry, the tested form may be a part): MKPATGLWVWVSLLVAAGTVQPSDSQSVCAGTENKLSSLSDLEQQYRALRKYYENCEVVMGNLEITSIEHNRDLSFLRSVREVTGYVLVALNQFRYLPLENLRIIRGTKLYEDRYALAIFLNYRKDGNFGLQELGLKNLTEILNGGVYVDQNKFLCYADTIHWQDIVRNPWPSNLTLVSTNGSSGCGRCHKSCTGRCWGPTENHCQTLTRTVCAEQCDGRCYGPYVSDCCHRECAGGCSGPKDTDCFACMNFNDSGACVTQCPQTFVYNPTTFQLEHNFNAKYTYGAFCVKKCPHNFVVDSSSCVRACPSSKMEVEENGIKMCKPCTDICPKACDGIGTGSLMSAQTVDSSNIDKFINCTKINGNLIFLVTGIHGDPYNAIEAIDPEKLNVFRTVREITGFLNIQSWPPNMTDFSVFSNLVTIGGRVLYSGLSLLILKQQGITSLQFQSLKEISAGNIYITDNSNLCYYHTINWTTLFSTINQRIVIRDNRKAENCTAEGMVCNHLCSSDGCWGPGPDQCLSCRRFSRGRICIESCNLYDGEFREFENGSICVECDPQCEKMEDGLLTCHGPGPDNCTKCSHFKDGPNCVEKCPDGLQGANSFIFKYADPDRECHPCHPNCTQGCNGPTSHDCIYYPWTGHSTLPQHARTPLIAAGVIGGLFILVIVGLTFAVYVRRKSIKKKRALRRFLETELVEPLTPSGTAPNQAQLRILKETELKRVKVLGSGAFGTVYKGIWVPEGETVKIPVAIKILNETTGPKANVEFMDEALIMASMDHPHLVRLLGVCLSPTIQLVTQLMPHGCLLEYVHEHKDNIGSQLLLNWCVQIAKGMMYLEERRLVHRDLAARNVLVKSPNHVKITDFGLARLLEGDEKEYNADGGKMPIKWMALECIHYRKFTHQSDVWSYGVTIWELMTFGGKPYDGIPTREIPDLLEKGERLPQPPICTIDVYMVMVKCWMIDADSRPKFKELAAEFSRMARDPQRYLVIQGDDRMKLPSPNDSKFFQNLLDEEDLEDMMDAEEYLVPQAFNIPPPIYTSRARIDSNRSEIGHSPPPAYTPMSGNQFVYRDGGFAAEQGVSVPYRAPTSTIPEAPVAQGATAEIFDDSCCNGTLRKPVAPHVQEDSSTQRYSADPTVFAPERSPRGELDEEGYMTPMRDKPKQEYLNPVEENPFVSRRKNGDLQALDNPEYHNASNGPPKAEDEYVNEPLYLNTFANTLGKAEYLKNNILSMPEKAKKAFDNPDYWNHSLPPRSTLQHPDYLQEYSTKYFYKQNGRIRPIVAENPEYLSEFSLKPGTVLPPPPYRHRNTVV
Sequence of MAP kinase-interacting serine/threonine-protein kinase 2 (Homo sapiens) (Q9HBH9 whole entry, looked up): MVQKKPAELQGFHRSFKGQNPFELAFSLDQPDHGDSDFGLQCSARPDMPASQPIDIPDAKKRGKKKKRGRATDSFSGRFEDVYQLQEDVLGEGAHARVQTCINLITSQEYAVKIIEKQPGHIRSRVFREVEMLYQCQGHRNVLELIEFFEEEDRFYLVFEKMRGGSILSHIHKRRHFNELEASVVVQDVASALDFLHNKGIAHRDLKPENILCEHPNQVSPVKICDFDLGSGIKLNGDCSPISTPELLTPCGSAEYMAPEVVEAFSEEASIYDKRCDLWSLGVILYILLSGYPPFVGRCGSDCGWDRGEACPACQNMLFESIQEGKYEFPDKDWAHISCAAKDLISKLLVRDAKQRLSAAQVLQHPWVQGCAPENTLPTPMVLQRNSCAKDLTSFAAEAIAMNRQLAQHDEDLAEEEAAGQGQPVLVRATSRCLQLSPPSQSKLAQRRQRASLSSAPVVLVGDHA
Sequence of Tyrosine-protein kinase Fer (Homo sapiens) (P16591 whole entry, looked up, the tested form may be a part): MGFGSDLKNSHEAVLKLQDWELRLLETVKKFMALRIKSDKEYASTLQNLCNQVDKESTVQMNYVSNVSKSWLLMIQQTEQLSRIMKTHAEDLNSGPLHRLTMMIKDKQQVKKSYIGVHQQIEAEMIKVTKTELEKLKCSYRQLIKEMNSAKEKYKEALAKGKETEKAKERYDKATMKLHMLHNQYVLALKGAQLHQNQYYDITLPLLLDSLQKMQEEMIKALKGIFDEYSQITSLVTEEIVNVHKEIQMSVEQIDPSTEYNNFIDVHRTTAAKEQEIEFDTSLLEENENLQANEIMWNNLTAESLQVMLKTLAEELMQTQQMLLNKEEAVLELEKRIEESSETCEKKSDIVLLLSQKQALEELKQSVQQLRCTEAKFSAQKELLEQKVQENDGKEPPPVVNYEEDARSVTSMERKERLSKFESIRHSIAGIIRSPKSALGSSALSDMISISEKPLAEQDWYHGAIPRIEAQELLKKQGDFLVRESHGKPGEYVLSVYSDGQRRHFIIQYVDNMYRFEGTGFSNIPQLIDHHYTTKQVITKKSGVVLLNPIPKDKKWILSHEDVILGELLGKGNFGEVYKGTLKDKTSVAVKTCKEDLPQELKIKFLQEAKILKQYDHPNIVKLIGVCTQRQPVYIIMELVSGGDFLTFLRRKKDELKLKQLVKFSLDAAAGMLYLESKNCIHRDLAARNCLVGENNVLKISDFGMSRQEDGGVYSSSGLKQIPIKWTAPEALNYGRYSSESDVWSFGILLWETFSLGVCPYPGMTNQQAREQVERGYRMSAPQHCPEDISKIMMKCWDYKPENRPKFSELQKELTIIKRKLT
Sequence of Serine/threonine-protein kinase Nek6 (Homo sapiens) (Q9HC98 whole entry, the tested form may be a part): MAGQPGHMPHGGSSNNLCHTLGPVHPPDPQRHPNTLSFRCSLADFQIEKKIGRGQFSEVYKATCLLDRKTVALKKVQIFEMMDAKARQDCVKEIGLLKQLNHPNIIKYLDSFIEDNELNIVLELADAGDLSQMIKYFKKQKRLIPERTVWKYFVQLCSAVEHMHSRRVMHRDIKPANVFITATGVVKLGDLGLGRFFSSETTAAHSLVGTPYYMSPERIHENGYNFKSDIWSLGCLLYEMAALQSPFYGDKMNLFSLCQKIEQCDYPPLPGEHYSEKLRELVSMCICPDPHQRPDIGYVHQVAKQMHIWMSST

For `C=CCOC(=O)c1cc(-c2ccc(/C=C3/NC(=S)NC3=O)o2)ccc1Cl`, the Activity in assay [1] was 92%; in [2], 62%; in assay [3], 92%; in [4] it was 92%; in assay [5], 98%; in [6], 98%. Besides, the Activity in assay [7] stood at 73%; in assay [8] it was 104%; in assay [9], 98%; in assay [10], 90%; in assay [11], 140%; in [12], 84%. Also, the Activity was 104% in assay [13]; 92% in [14]; 108% in [15]; 88% in [16]; 94% in assay [17]; 103% in [18]. The Activity came to 105% in [19], 101% in assay [20] and 95% in assay [21].

In the case of `N=C1NC(=O)/C(=C\c2ccc(-c3cccc([N+](=O)[O-])c3)o2)S1`, the Activity in assay [1] was 98%; in assay [2], 80%; in [3], 98%; in assay [4], 86%; in assay [5] it was 105%; in [6], 103%. The Activity in assay [7] is 53%; in assay [8] it was 99%; in assay [9], 102%; in [10], 99%; in [11], 96%; in assay [12], 77%. The Activity in [13] came out at 100%; in assay [14] it was 104%; in assay [15] it was 90%; in assay [16], 94%; in assay [17] it was 97%; in assay [18] it was 97%. In addition, the Activity was determined as 93% in assay [19], 103% in [20] and 99% in assay [21].

These data come from ChEMBL document CHEMBL4334438, “Discovery of novel glycogen synthase kinase-3α inhibitors: Structure-based virtual screening, preliminary SAR and biological evaluation for treatment of acute myeloid leukemia” (Eur J Med Chem, 2019).
